Experiments:
[1] = in vivo; cited from earlier work
human U937 cells = details: read-out: IC50, blocking programmed necrosis; cited from earlier work
mouse L929 cells = details: read-out: IC50, blocking programmed necrosis; cited from earlier work
TNF-induced shock model = details: mice; cited from earlier work
[2] = Rapid brain distribution assay (LC-MS/MS, brain tissue/plasma ratio); format: in vivo; details: mouse, ip, CD1 mice, intraperitoneal, grouped compounds, brain tissue and plasma taken one hour after administration, read-out: B/P
Procedure: The contents in plasma and tissue samples were measured by LC-MS/MS to obtain the ratio of the concentration in the brain tissue sample to that in the plasma sample, and compounds with blood-brain penetration could be quickly screened.
• 3.1. A group of compounds (usually 3-4 compounds, the molecular weight difference between each other was greater than 5), weighing 1-2 mg of each compound, were added into the same 4 mL weighing bottle. • 3.2. A mixed solvent of 10% DMSO+20% polyethylene glycol-15-hydroxystearate+70% H2O was used to prepare each group to a volume of 1.5 mL-2 mL. • 3.3. The mixture was ultrasonically vortexed until a homogeneous solution was obtained for intraperitioneal administration.
• 4.1. Three CD1 mice were prepared for each group and weighed. • 4.2. The administration volume was 10 mL/kg, and the mice were administered intraperitoneally. • 4.3. Timing was started after administration, and plasma samples and brain tissue samples were taken one hour later. • 4.4. The brain tissue sample was weighed, and then 4 fold volume of physiological saline was added. The resulting mixture was homogenized, and frozen at −20° C. until analysis.
• 5.1. The exact molecular weight of a compound was found from the compound information table. • 5.2. The corresponding parent ions and fragment ions were found, and the mass spectrometry condition and the liquid phase (chromatography) method were optimized to find the appropriate condition and method.
• 6.1. Plasma sample (5-fold dilution): 10 μL of the plasma sample was taken, and 40 μL of the blank plasma sample and 50 μL of the corresponding blank tissue sample were added. • 6.2 Tissue sample processing: 50 μL of the tissue sample (brain, kidney, liver and the like) was taken, and 50 μL of the blank plasma sample was added. • 6.3. The above tissue sample and the diluted plasma sample were taken, and 500 μL of the internal standard solution was added to precipitate the protein. The resulting mixture was vortexed for 2 minutes, stored by freezing at −20° C. for 1 hour and centrifuged at 3800 rpm for 15 minutes at 4° C. The supernatant was taken, 5-fold diluted with 50% MeOH, and then vortexed for 2 minutes, ready for measurement.
The sample was detected by using an appropriate LC-MS/MS method.
Distribution ratio of tissue/plasma=(peak area of compound in tissue/peak area of internal standard)/(peak area of compound in plasma/peak area of internal standard)

[3] = test system: HT-29 human colon cancer cells; test: In vitro biological activity assay: inhibition of TNFα/SmacM/Z_VAD FMK-induced programmed necrosis, CellTiter-Glo viability; format: cell-based; details: HT-29 cells, necrosis induced with TNF-α 100 ng/mL, SmacM 100 nM, Z_VAD-FMK 10 μM, overnight, cell viability by chemiluminescence
Procedure: In order to verify the inhibitory effect of the compounds of the present disclosure on programmed necrosis at the cellular level, a type of cells closely related to the RIP1 pathway, namely HT-29 human colon cancer cells, were selected. The used activation mode is a combination of tumor necrosis factor (TNFα), cysteine aspartate activator mimic (SmacM) and pan-caspase inhibitor Z_VAD FMK, and the cell viability was calculated by detecting chemiluminescence values, thus obtaining the biological activity of the compound inhibiting the programmed necrosis of cells.
Cell line: HT-29 (ATCC® HTB-38™)
• 2.1. The Growth Status of HT-29 Cells was Regularly Checked to Ensure their Normal Growth. • 2.2. McCOY's 5A culture medium containing 10% FBS was preheated in a 37° C. water bath for 30 minutes. When the culture medium was ready for use, the cell passage and inoculation was performed in a Class II safety cabinet with aseptic technique. • 2.3. In a T75 culture flask, when the growth density of cells reached the abundance of approximately 80%, the culture medium was aspirated and cells were washed twice with pre-warmed PBS. • 2.4. 2-3 mL of trypsin (Gibco, catalog number 25200-056) was added and the T75 culture flask was transferred to a 37° C. incubator. • 2.5. After 3-5 minutes, the side of the culture flask was tapped and examined under a microscope for detachment of the cells to the flask. If necessary, the cells were placed back into the incubator to wait for another 5-10 minutes until 85% of the cells were detached from each other. • 2.6. 6-9 mL of complete cell culture medium was quickly added to terminate the trypsin reaction, and then the cells were transferred to a sterile 15 mL centrifuge tube. The cells were pelleted by centrifugation at 300 g for 5-7 minutes in a centrifuge, and then the supernatant was decanted. • 2.7. The cells were resuspended in 10 mL of fresh cell culture medium and the cells were counted by using a hemocytometer. • 2.8. 3,000 cells contained in 100 μL were inoculated into each well of a sterile 96-well cell culture plate (Corning 3903) and cultured overnight at 37° C. under 5% CO2.
• 3.1. All batches of compounds were dissolved in dimethyl sulfoxide (DMSO) to prepare a 20 mM stock. • 3.2. 3 μL of 20 mM stock of each compound was added to 27 μL of DMSO and mixed thoroughly, and then diluted at a dilution ratio of […] (20 μL compound+40 μL DMSO) until the 10-12 points ended. After the compounds were diluted, they were set aside for use. • 3.3. The cell culture plate was taken out from the incubator, washed once with PBS, and replaced with a fresh culture medium free of serum. A mixture of TNF-α (100 ng/mL), SMAC mimic (SmacM, 100 nM) and Z_VAD-FMK (10 μM) was added to induce the programmed necrosis in HT-29 cells. • 3.4. The compound dilution plate was prepared, 0.5 μL of the diluted compound was added to the corresponding 96-well plate, and mixed gently. Two duplicate wells were prepared for each compound. • 3.5. The treated 96-well plate to which the compounds had been added was placed back into the 37° C. incubator containing 5% CO2 and incubated overnight.
The luminescence cell viability detection kit was used to calculate the activity of the compound by measuring the ATP content in viable cells. • 4.1. The CellTiter-Glo® buffer and dry powdered substrate were equilibrated to room temperature before use. • 4.2. The CellTiter-Glo® substrate was resuspended with Cell Titer-Glo® buffer, then homogeneously mixed by gently vortexing. • 4.3. The cell culture plate was taken out and equilibrated at room temperature for 10 minutes (usually not suitable if more than 30 minutes). • 4.4. 20 μL of enzyme/substrate mixture was added into the 96-well assay plate with a multi-channel pipettor. • 4.5. The 96-well assay plate was placed on a shaker and the content was mixed for 2-3 minutes to promote the cell lysis. • 4.6. […]

Row | Compound | Kp at 1 h [2] | EC50 [3] [nM] | other results
1 | CN1C(=O)[C@@H](NC(=O)c2nnc(Cc3ccccc3)[nH]2)COc2ccccc21 [GSK2982772] | – | – | brain tissue distribution [1]: low brain tissue distribution
2 | CC(C)(C)C(=O)N1N=CC[C@H]1c1ccccc1 [GSK′963] | – | – | IC50 (human U937 cells): 4 nM; IC50 (mouse L929 cells): 1 nM; effect on hypothermia (TNF-induced shock model): effectively inhibit hypothermia
3 | Nc1ncc(CCc2cncc(-n3cc4c(n3)[C@H](c3ccccc3)CC4)c2)cn1 [Compound 61, (S)-5-(2-(5-(6-phenyl-5,6-dihydrocyclopenta[c]pyrazol-2 (4H)-yl)pyridin-3-yl)ethyl)pyrimidin-2-amine] | 1.17 | ≤ 100 | –
4 | Nc1ncc(C#Cc2cncc(-n3cc4c(n3)[C@H](c3ccccc3)CC4)c2)s1 [Compound 31] | 2.38 | ≤ 100 | –
5 | Oc1ccc(C#Cc2cncc(-n3cc4c(n3)C(c3ccccc3)CC4)c2)nn1 (stereo not shown) [Compound 11, 6-((5-(6-phenyl-5,6-dihydrocyclopenta[c]pyrazol-2 (4H)-yl)pyridin-3-yl)ethynyl)pyridazine-3-ol] | 1.23 | ≤ 100 | –
6 | C(#Cc1cnc2ccccn12)c1cccc(-n2cc3c(n2)C(c2ccccc2)CC3)c1 (stereo not shown) [Compound 15, 3-((3-(6-phenyl-5,6-dihydrocyclopenta[c]pyrazol-2 (4H)-yl)phenyl)ethynyl)imidazo[1,2-a]pyridine] | 0.406 | ≤ 100 | –
7 | Nc1ncc(C#Cc2cc(-n3cc4c(n3)C(c3ccccc3)CC4)ncn2)cn1 (stereo not shown) [Compound 9, 5-((6-(6-phenyl-5,6-dihydrocyclopenta[c]pyrazol-2 (4H)-yl)pyrimidine-4-yl)ethynyl)pyrimidin-2-amine] | 2.85 | 100 to 1000 | –
8 | C(#Cc1cnc2cccnn12)c1ccnc(-n2cc3c(n2)C(c2ccccc2)CC3)n1 (stereo not shown) [Compound 7, 3-((2-(6-phenyl-5,6-dihydrocyclopenta[c]pyrazol-2 (4H)-yl)pyrimidine-4-yl)ethynyl)imidazo[1,2-b]pyridazine] | 0.12 | 100 to 1000 | –
9 | C(#Cc1cnc2cccnn12)c1cccc(-n2cc3c(n2)C(c2ccccc2)CC3)c1 (stereo not shown) [Compound 5] | 0.75 | ≤ 100 | –
10 | COc1ccc(C#Cc2cccc(-n3cc4c(n3)C(c3ccccc3)CC4)c2)cn1 (stereo not shown) [Compound 33, 2-(3-((6-methoxypyridin-3-yl)ethynyl)phenyl)-6-phenyl-2,4,5,6-tetrahydrocyclopenta[c]pyrazole] | 0.563 | ≤ 100 | –

More lines, main results first:

Row | Kp at 1 h [2] | Compound | EC50 [3] [nM] | other results
11 | 2.93 | Cc1ncc(C#Cc2cnc(N)nc2)cc1-n1nc2c(n1)C(c1ccccc1)CC2 (stereo not shown) [Compound 58, 5-((6-methyl-5-(4-phenyl-5,6-dihydrocyclopenta[d][1,2,3]triazol-2 (4H)-yl)pyridin-3-yl)ethynyl)pyrimidin-2-amine] | ≤ 100 | –
12 | 2.46 | Nc1ncc(C#Cc2cncc(-n3cc4c(n3)C(c3ccccc3)CC4)c2)cn1 (stereo not shown) [Compound 38] | ≤ 100 | –
13 | 2.45 | Cc1ncc(C#Cc2cnc(N)nc2)cc1-n1cc2c(n1)C(c1ccccc1)CC2 (stereo not shown) [Compound 42, 5-((6-methyl-5-(6-phenyl-5,6-dihydrocyclopenta[c]pyrazol-2 (4H)-yl)pyridin-3-yl)ethynyl)pyrimidin-2-amine] | ≤ 100 | –
14 | 3.77 | Nc1ncc(C#Cc2cncc(-n3nc4c(n3)C(c3cc(F)cc(F)c3)CC4)c2)cn1 (stereo not shown) [Compound 63, 5-((5-(4-(3,5-difluorophenyl)-5,6-dihydrocyclopenta[d][1,2,3]triazol-2 (4H)-yl)pyridin-3-yl)ethynyl)pyrimidin-2-amine] | ≤ 100 | –
15 | 2.16 | Cn1c(-n2nc3c(n2)C(c2ccccc2)CC3)cc(C#Cc2cnc(N)nc2)cc1=O (stereo not shown) [Compound 57, 4-((2-aminopyrimidin-5-yl)ethynyl)-1-methyl-6-(4-phenyl-5,6-dihydrocyclopenta[d][1,2,3]triazol-2 (4H)-yl)pyridine-2 (1H)-one] | ≤ 100 | –
16 | 3.62 | Cc1ncc(C#Cc2cn[nH]c2)cc1-n1nc2c(n1)C(c1ccccc1)CC2 (stereo not shown) [Compound 66, 2-(5-((1H-pyrazole-4-yl)ethynyl)-2-methylpyridin-3-yl)-4-phenyl-2,4,5,6-tetrahydrocyclopenta[d][1,2,3]triazole] | ≤ 100 | –
17 | 1.44 | Nc1ncc(C#Cc2cncc(-n3nc4c(n3)C(c3ccccc3)CC4)c2)cn1 (stereo not shown) [Compound 54, 5-((5-(4-phenyl-5,6-dihydrocyclopenta[d][1,2,3]triazol-2 (4H)-yl)pyridine-3-yl)ethynyl)pyrimidin-2-amine] | ≤ 100 | –
